5 compounds from ChEMBL document CHEMBL1201862, “PubChem BioAssay data set” (2004) can be followed below.

The target in experiment [1] is Fibroblast growth factor receptor 1 (Homo sapiens, UniProt P11362). Format: functional.
Experiment [2] has as its target STE20-like serine/threonine-protein kinase (Homo sapiens, UniProt Q9H2G2). Format: functional.
The target of experiment [3] is Eukaryotic elongation factor 2 kinase (Homo sapiens, UniProt O00418). It counts as functional.
Experiment [4] concerns the target Casein kinase I isoform gamma-1 (Homo sapiens, UniProt Q9HCP0). Format: functional.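 Also: measured as the CSNK1G1 member of a kinome profiling panel.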
In experiment [5] the target is Serine/threonine-protein kinase PAK 1 (Homo sapiens, UniProt Q13153). It counts as functional.
The target in experiment [6] is cGMP-dependent protein kinase 1 (Homo sapiens, UniProt Q13976). Format: functional.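 Also: value from a kinome panel screen with PRKG1 as the panel member.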
In experiment [7] the target is Serine/threonine-protein kinase PAK 4 (Homo sapiens, UniProt O96013). Format: functional.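 Also: value obtained within a kinome profiling panel in which PAK4 was one of the panel members.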
For experiment [8], the target named is Serine/threonine-protein kinase pim-1 (Homo sapiens, UniProt P11309). It counts as functional.
Experiment [9] addresses Interleukin-1 receptor-associated kinase 1 (Homo sapiens, UniProt P51617). It counts as functional.
Experiment [10] addresses MAP kinase-interacting serine/threonine-protein kinase 2 (Homo sapiens, UniProt Q9HBH9). Format: functional.
In experiment [11] the target is Serine/threonine-protein kinase Nek2 (Homo sapiens, UniProt P51955). It counts as functional.
The target of experiment [12] is Serine/threonine-protein kinase pim-2 (Homo sapiens, UniProt Q9P1W9). It counts as functional.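 Also: value comes from a broad kinase panel profiling study in which PIM2 was one of the panel members.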
The target in experiment [13] is Mitogen-activated protein kinase 8 (Homo sapiens, UniProt P45983). Format: functional.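 Also: value comes from one member of a kinome-wide kinase profiling panel.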
Experiment [14] addresses Mitogen-activated protein kinase 9 (Homo sapiens, UniProt P45984). Format: functional.
The target in experiment [15] is Tyrosine-protein kinase Fer (Homo sapiens, UniProt P16591). It counts as functional.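 Also: FER tested as one member of a kinome panel.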
For experiment [16], the target named is Tyrosine-protein kinase JAK2 (Homo sapiens, UniProt O60674). Format: functional.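 Also: JAK2 tested as one member of a kinase panel.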
The target of experiment [17] is Cyclin-dependent kinase 19 (Homo sapiens, UniProt Q9BWU1). In words: Navigating the Kinome. Panel member name: CDC2L6. Format: functional.
Experiment [18] has as its target DNA dC->dU-editing enzyme APOBEC-3G (Homo sapiens, UniProt Q9HC16). In words: Dose Response confirmation of small molecule APOBEC3G DNA Deaminase Inhibitors via a fluorescence-based single-stranded DNA deaminase assay. [Related pubchem assays (depositor defined):AID493012, AID493028]. Format: functional.
In another experiment the target is T1, Phosphomannomutase 2 (Homo sapiens, UniProt O15305).
T1 sequence (O15305 whole entry): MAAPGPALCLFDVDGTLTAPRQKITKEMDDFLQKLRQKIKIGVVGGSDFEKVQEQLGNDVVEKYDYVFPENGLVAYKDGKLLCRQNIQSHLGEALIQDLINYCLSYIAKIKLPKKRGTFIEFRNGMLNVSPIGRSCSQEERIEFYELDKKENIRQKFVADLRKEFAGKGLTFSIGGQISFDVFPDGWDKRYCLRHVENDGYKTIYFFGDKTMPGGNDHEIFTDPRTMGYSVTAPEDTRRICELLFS
In words: Counter screen SAR assay for PMM2 inhibitors via a fluorescence intensity assay. [Related pubchem assays (depositor defined):AID1545, AID1574]. On the technique in general: The purpose of a counterscreen is to sort out artefacts and off-target activity.

Experiment [19] concerns the target DNA dC->dU-editing enzyme APOBEC-3A (Homo sapiens, UniProt P31941). As to the kind of experiment: A3A deaminase inhibition for selectivity – biochemical, dose response (AID 504722). It counts as functional.
Another experiment deals with T2, Aspartyl aminopeptidase (Plasmodium falciparum 3D7, UniProt Q8I2J3).
T2 sequence (Q8I2J3 whole entry): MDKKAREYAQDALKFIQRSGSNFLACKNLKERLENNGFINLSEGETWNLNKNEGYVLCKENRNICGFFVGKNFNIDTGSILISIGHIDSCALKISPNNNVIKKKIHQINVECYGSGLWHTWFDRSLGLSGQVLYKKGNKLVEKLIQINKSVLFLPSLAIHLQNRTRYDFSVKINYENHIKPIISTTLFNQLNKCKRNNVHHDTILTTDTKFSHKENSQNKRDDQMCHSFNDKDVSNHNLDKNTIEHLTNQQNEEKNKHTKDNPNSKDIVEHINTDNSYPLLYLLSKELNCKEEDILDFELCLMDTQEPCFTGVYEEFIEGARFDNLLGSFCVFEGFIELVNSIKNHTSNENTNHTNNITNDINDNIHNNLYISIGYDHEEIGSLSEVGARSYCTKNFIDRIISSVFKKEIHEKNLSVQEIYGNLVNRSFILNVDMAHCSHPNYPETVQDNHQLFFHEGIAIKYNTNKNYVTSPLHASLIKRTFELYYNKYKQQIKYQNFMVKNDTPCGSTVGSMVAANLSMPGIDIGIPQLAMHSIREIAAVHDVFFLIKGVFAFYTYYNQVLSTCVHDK

Experiment [20] in a line: HEK-293T viability loss after treatment – luminescence, T-cell screen hits, cytotoxicity control for TCR NF-kB inhibitor project, dose response (AID 489026).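 Also: cells exposed to compound about 14 hours before the viability readout.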 It counts as functional, cell-based.
The next experiment concerns HEK293. As to the kind of experiment: EBV LMP1 TES2 canonical NF-kB signalling blockers – cell-based, HEK293, luciferase, cherry-pick, dose response (AID 588343). It counts as functional. Particulars: Homo sapiens.
Experiment [21] concerns the target T3, Zinc finger protein mex-5 (Caenorhabditis elegans, UniProt Q9XUB2).
T3 sequence (Q9XUB2 whole entry): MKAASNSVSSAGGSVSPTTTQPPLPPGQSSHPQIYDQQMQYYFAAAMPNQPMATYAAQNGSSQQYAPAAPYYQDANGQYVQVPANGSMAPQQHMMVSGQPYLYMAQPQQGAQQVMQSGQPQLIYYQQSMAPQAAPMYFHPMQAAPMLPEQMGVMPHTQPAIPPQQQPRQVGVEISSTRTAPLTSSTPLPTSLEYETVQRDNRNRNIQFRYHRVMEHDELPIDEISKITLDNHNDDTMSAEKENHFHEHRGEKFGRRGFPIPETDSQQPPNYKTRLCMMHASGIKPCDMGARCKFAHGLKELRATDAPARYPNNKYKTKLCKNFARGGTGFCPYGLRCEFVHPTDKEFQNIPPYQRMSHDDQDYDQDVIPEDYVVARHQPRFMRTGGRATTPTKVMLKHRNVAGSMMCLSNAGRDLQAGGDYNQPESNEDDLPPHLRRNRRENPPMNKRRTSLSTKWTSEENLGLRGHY
As to the kind of experiment: potency of MEX-5 RNA-binding blockers – biochemical, C. elegans, fluorescence polarization, dose response (AID 1960). On the technique in general: Fluorescence polarisation rises when a labelled molecule tumbles more slowly, as on binding a larger partner.

The target of experiment [22] is DNA (cytosine-5)-methyltransferase 1 (Homo sapiens, UniProt P26358). In words: inhibition of DNA methylation by DNMT1 – biochemical, fluorescent molecular beacon, confirmation (AID 602386). Format: functional.
Experiment [23] is described as follows: fluconazole-exposed Candida albicans growth modulators – fluorescence, retest, confirmation (AID 2467). Format: functional, cell-based.

Values joined by “and” are separate entries in the source; they are usually repeats but may differ in a detail not shown here. Identical values can stand only once. Active and inactive are the calls of the source.

Chain of Fibroblast growth factor receptor 1 (P11362 whole entry): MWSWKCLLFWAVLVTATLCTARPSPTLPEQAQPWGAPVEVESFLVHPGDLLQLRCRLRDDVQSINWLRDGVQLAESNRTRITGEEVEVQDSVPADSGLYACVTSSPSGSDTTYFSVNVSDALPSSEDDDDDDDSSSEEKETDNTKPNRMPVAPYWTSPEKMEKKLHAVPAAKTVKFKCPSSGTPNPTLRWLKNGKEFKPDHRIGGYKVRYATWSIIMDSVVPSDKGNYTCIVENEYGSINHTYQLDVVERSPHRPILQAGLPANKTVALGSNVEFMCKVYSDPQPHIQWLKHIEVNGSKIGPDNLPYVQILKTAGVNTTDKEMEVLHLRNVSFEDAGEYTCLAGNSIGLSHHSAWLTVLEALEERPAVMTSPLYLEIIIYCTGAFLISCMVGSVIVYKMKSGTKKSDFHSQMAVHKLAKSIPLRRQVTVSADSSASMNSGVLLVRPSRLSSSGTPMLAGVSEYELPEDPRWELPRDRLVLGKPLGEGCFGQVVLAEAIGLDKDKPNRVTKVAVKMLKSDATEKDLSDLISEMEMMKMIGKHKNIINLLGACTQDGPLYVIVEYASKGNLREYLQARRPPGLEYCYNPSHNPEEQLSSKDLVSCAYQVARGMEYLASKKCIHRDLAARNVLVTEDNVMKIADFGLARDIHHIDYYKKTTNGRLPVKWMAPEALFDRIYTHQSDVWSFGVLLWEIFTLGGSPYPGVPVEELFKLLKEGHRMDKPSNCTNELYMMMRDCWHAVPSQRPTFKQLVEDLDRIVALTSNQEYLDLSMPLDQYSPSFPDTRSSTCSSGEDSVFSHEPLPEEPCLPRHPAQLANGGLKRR
Chain of Eukaryotic elongation factor 2 kinase (O00418 whole entry, canonical isoform): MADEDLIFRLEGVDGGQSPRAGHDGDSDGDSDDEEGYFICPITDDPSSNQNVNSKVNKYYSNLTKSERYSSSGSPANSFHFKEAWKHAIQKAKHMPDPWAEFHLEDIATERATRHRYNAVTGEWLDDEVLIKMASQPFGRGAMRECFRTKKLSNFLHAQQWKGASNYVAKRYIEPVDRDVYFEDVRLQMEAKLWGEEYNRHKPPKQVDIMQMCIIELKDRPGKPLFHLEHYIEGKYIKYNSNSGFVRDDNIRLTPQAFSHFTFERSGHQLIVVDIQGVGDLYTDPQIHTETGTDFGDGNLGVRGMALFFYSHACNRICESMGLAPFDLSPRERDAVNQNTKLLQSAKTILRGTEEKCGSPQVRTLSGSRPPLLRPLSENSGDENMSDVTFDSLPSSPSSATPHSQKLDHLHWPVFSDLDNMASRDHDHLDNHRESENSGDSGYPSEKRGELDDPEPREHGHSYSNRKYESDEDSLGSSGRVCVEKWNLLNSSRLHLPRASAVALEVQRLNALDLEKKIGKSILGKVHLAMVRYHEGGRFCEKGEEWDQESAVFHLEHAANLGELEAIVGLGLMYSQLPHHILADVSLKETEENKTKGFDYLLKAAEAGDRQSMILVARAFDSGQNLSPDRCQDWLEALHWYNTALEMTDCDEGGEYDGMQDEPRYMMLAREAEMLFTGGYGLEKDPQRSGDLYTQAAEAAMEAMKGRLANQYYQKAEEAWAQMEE
Chain of Serine/threonine-protein kinase pim-2 (Q9P1W9 whole entry): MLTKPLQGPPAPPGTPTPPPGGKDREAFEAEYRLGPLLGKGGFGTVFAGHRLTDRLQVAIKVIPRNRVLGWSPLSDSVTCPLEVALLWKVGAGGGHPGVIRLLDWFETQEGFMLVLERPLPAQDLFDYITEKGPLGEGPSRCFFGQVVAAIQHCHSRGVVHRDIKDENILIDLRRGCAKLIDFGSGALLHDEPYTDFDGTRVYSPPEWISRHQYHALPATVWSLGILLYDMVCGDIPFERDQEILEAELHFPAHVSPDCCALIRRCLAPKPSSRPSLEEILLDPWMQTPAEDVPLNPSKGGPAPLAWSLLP
Chain of DNA dC->dU-editing enzyme APOBEC-3G (Q9HC16 whole entry): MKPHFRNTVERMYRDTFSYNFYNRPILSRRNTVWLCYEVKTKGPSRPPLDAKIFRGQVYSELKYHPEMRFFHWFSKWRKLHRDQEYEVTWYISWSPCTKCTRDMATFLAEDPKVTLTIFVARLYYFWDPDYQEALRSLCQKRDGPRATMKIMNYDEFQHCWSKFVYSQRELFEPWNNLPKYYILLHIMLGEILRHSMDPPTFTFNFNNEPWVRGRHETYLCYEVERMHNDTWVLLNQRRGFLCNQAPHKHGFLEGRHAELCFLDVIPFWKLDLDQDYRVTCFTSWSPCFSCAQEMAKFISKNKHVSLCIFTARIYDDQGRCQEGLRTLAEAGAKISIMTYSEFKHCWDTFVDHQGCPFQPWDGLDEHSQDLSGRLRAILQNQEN
Chain of STE20-like serine/threonine-protein kinase (Q9H2G2 whole entry): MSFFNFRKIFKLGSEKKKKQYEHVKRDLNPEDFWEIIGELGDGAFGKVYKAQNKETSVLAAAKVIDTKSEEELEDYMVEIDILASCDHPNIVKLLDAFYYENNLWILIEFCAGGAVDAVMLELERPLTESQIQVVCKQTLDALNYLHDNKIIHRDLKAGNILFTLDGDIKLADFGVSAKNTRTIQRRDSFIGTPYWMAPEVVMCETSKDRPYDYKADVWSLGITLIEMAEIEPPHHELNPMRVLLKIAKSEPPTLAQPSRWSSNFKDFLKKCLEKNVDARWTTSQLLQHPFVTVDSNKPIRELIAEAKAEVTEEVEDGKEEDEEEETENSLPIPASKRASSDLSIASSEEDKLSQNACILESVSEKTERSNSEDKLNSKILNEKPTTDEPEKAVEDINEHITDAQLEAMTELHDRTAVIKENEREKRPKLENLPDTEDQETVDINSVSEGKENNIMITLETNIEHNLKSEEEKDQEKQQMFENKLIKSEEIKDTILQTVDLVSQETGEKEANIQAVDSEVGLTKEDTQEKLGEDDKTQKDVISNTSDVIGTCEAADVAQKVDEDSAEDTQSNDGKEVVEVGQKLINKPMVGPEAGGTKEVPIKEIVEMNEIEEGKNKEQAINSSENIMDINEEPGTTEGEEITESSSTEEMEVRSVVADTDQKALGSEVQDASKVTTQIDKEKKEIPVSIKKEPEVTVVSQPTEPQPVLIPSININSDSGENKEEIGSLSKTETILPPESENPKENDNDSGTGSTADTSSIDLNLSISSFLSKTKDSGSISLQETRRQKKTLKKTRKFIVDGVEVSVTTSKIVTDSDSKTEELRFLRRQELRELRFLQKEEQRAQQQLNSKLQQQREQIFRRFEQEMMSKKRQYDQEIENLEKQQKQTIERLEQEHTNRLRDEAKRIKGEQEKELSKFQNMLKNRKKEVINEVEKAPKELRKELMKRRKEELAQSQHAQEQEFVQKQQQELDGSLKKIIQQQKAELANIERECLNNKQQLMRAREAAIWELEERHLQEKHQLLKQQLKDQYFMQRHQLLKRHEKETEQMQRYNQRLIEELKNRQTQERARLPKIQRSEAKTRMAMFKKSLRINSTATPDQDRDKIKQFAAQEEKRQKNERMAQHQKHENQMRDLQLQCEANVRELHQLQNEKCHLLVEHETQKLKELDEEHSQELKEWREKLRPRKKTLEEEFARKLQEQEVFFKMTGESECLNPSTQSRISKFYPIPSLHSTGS
Chain of Casein kinase I isoform gamma-1 (Q9HCP0 whole entry, canonical isoform): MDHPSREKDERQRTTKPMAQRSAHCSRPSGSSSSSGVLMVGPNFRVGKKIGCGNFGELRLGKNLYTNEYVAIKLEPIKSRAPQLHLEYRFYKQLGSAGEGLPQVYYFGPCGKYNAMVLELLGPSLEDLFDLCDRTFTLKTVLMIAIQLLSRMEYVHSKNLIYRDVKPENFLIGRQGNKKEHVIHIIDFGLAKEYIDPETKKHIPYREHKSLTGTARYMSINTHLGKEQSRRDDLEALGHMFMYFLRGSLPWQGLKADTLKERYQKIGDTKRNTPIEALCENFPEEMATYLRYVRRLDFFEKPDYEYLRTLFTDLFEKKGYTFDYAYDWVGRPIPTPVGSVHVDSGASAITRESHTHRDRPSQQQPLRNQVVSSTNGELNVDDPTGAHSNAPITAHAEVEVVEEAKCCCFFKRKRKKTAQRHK
Chain of MAP kinase-interacting serine/threonine-protein kinase 2 (Q9HBH9 whole entry): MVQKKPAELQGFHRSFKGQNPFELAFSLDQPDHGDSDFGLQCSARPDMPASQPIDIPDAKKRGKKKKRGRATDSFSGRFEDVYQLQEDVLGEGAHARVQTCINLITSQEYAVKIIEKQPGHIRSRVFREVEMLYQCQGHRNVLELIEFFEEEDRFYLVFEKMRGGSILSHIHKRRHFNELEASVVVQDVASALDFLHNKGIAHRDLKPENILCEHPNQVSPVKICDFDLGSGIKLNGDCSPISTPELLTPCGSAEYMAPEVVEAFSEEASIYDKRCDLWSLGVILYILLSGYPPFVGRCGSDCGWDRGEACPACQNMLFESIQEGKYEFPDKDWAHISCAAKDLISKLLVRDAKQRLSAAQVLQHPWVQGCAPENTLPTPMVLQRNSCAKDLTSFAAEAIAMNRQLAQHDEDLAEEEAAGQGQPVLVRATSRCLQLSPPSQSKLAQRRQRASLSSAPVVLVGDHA
Chain of Mitogen-activated protein kinase 8 (P45983 whole entry): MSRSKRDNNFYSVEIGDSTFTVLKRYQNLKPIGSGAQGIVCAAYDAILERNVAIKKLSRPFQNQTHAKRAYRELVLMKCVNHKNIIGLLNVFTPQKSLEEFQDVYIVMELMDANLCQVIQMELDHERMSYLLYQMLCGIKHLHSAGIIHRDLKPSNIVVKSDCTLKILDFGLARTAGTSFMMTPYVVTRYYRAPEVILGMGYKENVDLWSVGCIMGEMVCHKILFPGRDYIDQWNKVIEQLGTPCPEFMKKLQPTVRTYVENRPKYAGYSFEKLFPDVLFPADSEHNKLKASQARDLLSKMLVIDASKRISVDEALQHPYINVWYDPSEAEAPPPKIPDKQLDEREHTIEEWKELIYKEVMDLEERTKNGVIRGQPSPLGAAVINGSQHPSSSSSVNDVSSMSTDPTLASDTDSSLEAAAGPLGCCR
Chain of DNA dC->dU-editing enzyme APOBEC-3A (P31941 whole entry): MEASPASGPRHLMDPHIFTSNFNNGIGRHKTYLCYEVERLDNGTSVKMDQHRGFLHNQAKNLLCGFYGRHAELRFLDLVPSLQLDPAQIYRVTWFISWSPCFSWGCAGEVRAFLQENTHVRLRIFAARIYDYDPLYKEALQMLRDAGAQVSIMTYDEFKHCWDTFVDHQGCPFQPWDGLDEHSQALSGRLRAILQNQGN

Turning to `Cc1cccc(NC(=O)Nc2ccc3c(c2)CCc2sc4ncnc(N)c4c2-3)c1`, the Ki (usually a dissociation constant, usually derived from enzyme kinetics or from competition with a known ligand) in experiment [1] is 2.51 µM (active); in [2], 0.0631 µM (active); in [3], > 3.98 µM (inactive); in experiment [4], 2.51 µM (active); in experiment [5], > 10 µM (inactive); in [6], > 2 µM (inactive). The Ki in experiment [7] is > 5.01 µM (inactive); in experiment [8] it was 3.98 µM (active); in [9] it was > 7.94 µM (inactive); in [10], 0.0794 µM (active); in experiment [11] it was > 10 µM (inactive); in experiment [12], 0.501 µM (active). Also, the Ki in [13] is > 3.16 µM (inactive); in experiment [14] it was > 3.98 µM (inactive); in experiment [15] it was > 1.58 µM (inactive); in experiment [16], > 1.58 µM (inactive); in [17], > 100 µM (inactive).
In the case of `Cc1ccc(-n2sc3ccccc3c2=O)cc1`, the IC50 – broadly, the concentration needed to halve the response being measured – in experiment [18] is 18.2 µM (active); on Phosphomannomutase 2, > 100 µM (inactive) and 38 µM (active); in experiment [19], > 100 µM (inactive); on Aspartyl aminopeptidase, 1.25 µM (active).
For the compound `CCC(=O)NC(c1ccc(C)cc1)c1ccc2cccnc2c1O` (stereo unspecified), the IC50 in [20] is > 80 µM (inactive). Also, in the experiment with HEK293, the AC50 (commonly the midpoint of the concentration-response curve, whichever way the signal moves) was 4.51 µM (active).
On to `N/C(=N\N=C/c1ccc(-c2ccc(O)c(C(=O)O)c2)o1)N[N+](=O)[O-]`, for which, in [21], the EC50 – broadly, the concentration giving half of the maximal effect – was 26.1 µM (active). The IC50 in experiment [22] was 3.94 µM (active).
On to `CCCC(=O)NC(c1ccc(Cl)cc1)c1ccc2cccnc2c1O` (stereo unspecified), for which, in [23], the EC50 is 0.365 µM (active).
